Our source for the inhibition, EC50 and Emax values is patent publication US10188634B2, “3-(3H-imidazo[4,5-C]pyridin-2-yl)-1 H-pyrazolo[4,3-B]pyridines and therapeutic uses thereof” (Samumed, LLC, priority 2015, dated 2019).

Test [1] relates to Wnt activity (Sp5-Luc reporter, human Sp5 promoter with eight TCF/LEF binding sites) in SW480 colon carcinoma cells. In words: Screening assay for Wnt activity: Sp5-Luc reporter gene assay in SW480 cells. As to conditions: for inhibition at 10 µM: read-out: percent inhibition at 10 μM (given for EC50 of >10 μM); for EC50: 10-point dose-response starting from 10 μM, overnight incubation. The format is cell-based. The essentials: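 SW480 cells stably carrying Sp5-Luc reporter (eight TCF/LEF sites) plated at 4,000/well in 1% FBS medium with compound (10-point 1:3 series from 10 μM, 0.1% DMSO) overnight at 37 °C. BrightGlo luminescence normalized to DMSO; EC50 by four-parameter fit, else % inhibition at 10 μM.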
For orientation: A reporter such as luciferase makes a cellular process visible.

Test [2] concerns primary human mesenchymal stem cells (hMSCs). In words: Induction of chondrogenesis in primary human mesenchymal stem cells (hMSCs), nodule imaging with Rhodamine B / Nile Red. The format is cell-based. The settings on record: for Emax: hMSCs chondrogenesis, TGF-β3 (10 ng/mL) as positive control, read-out: Max. Activity as % TGF-β3 activity; for EC50: hMSCs, concentration required to induce 50% levels of chondrogenesis vs TGF-β3 positive control, read-out: Conc (nM) of 50% TGF-β3 activity. Here is the method: Representative compounds were screened using primary human mesenchymal stem cells (hMSCs) to determine their ability to induce chondrogenesis (process by which cartilage is developed).
Human Mesenchymal Stem Cell Culture: Primary human mesenchymal stem cells (hMSCs) were purchased from Lonza (Walkersville, Md.) and expanded in Mesenchymal Stem Cell Growth Media (Lonza). Cells between passage 3 and 6 were used for the experiments.
Compound Screening: Each compound was dissolved in DMSO as a 10 mM stock and used to prepare compound source plates. For the 96 well assay, serial dilution (1:3, 6-point dose-response curves from 2700 nM to 10 nM) and compound transfer was performed using the ECHO 550 (Labcyte, Sunnyvale, Calif.) into 96-well clear bottom assay plates (Greiner Bio-One) with appropriate DMSO backfill for a final DMSO concentration of 0.03%. hMSCs were plated at 20,000 cells/well in 250 μL/well Incomplete Chondrogenic Induction Medium (Lonza; DMEM, dexamethasone, ascorbate, insulin-transferrin-selenium [ITS supplement], gentamycin-amphotericin [GA-1000], sodium pyruvate, proline and L-glutamine). TGF-β3 (10 ng/mL) was used as a positive control for differentiation while negative control wells were treated with 75 nL DMSO for normalization and calculating EC50 values. For the 384 well assay, serial dilution (1:3, 8-point dose-response curves from 5000 nM to 2.2 nM) and compound transfer was performed using the ECHO 550 (Labcyte, Sunnyvale, Calif.) into 384-well clear bottom assay plates (Greiner Bio-One) with appropriate DMSO backfill for a final DMSO concentration of 0.03%. hMSCs were plated at 8,000 cells/well in 80 μL/well Incomplete Chondrogenic Induction Medium (Lonza; DMEM, dexamethasone, ascorbate, insulin-transferrin-selenium [ITS supplement], gentamycin-amphotericin [GA-1000], sodium pyruvate, proline and L-glutamine). TGF-β3 (10 ng/mL) was used as a positive control for differentiation while negative control wells were treated with 25 nL DMSO for normalization and calculating EC50 values. Cells were incubated at 37° C. and 5% CO2 for 6 days. To image chondrogenic nodules, the cells were fixed using 4% formaldehyde (Electron Microscopy Sciences), and stained with 2 μg/mL Rhodamine B (Sigma-Aldrich) and 20 μM Nile Red (Sigma-Aldrich) [Johnson K., et.al, A Stem Cell-Based Approach to Cartilage Repair, Science, (2012), 336(6082). 717-721]. The nodules imaged (25 images per well for 96 well plates and 9 images per well for 384 well plates at 10× magnification) by excitation at 531 nm and emission at 625 nm and quantified using the CellInsight CX5 (Thermo Scientific). Area of nodules in each well was normalized to the average of 3 DMSO treated wells on the same plate using Excel (Microsoft Inc.). The normalized averages (fold change over DMSO) of 2 or 3 replicate wells for each compound concentration were calculated. Due to solubility limitations of some of the compounds, curve fitting was incomplete leading to inaccurate EC50 determinations.
Using TGF-β3 as a positive control, the concentration of representative compounds required to induce 50% levels of chondrogenesis is reported. In addition, the maximum activity of each compound and the respective dose that each compound reached maximum chondrogenesis activity is reported.

For `Fc1cccc(-c2cncc3[nH]c(-c4n[nH]c5ccc(-c6cn[nH]c6)nc45)nc23)c1` [Compound 479, 3-(7-(3-Fluorophenyl)-3H-imidazo[4,5-c]pyridin-2-yl)-5-(1H-pyrazol-4-yl)-1H-pyrazolo[4,3-b]pyridine], in test [1], the inhibition (commonly the relative decrease from the control value, in per cent) at 10 µM came to 9% and the EC50 was above 10000 nM. Moreover, in test [2], the Emax came to 52% and the EC50 was found to be 21 nM.
For `Cc1ncc(-c2ccc3[nH]nc(-c4nc5c(-c6cccc(F)c6)cncc5[nH]4)c3n2)s1` [Compound 1081, 5-(3-(7-(3-Fluorophenyl)-3H-imidazo[4,5-c]pyridin-2-yl)-1H-pyrazolo[4,3-b]pyridin-5-yl)-2-methylthiazole], in that order: 38%, above 10000 nM, 81% and 7 nM.
On to `CCCCC(=O)Nc1cncc(-c2ccc3[nH]nc(-c4nc5c(-c6cc(F)cc(NCCN(C)C)c6)cncc5[nH]4)c3n2)c1` [Compound 439, N-(5-(3-(7-(3-((2-(Dimethylamino)ethyl)amino)-5-fluorophenyl)-3H-imidazo[4,5-c]pyridin-2-yl)-1H-pyrazolo[4,3-b]pyridin-5-yl)pyridin-3-yl)pentanamide], for which, in test [1], the inhibition at 10 µM came out at 3.1% and the EC50 was above 10000 nM. Besides, in test [2], the Emax was determined as 65% and the EC50 worked out at 10 nM.
As for `Oc1cncc(-c2ccc3[nH]nc(-c4nc5c(-c6cccc(F)c6)cncc5[nH]4)c3n2)c1` [Compound 489, 5-(3-(7-(3-Fluorophenyl)-3H-imidazo[4,5-c]pyridin-2-yl)-1H-pyrazolo[4,3-b]pyridin-5-yl)pyridin-3-ol], in test [1], the inhibition at 10 µM is 27% and the EC50 was above 10000 nM. Also, in test [2], the Emax was 54% and the EC50 came out at 21 nM.
For `CCCCC(=O)Nc1cncc(-c2ccc3[nH]nc(-c4nc5c(-c6ccoc6)cncc5[nH]4)c3n2)c1` [Compound 299, N-(5-(3-(7-(Furan-3-yl)-3H-imidazo[4,5-c]pyridin-2-yl)-1H-pyrazolo[4,3-b]pyridin-5-yl)pyridin-3-yl)pentanamide], in that order: 14.7%, above 10000 nM, 74% and 10 nM.
For `CCNCc1cncc(-c2ccc3[nH]nc(-c4nc5c(-c6cc(F)cc(NCCN(C)C)c6)cncc5[nH]4)c3n2)c1` [Compound 426, N^1-(3-(2-(5-(5-((Ethylamino)methyl)pyridin-3-yl)-1H-pyrazolo[4,3-b]pyridin-3-yl)-3H-imidazo[4,5-c]pyridin-7-yl)-5-fluorophenyl)-N^2,N^2-dimethylethane-1,2-diamine], in that order: 8.8%, above 10000 nM, 66% and 1670 nM.
For `Cc1cn(-c2cncc3[nH]c(-c4n[nH]c5ccc(-c6cncc(NC(=O)C(C)(C)C)c6)nc45)nc23)cn1` [Compound 204, N-(5-(3-(7-(4-methyl-1H-imidazol-1-yl)-3H-imidazo[4,5-c]pyridin-2-yl)-1H-pyrazolo[4,3-b]pyridin-5-yl)pyridin-3-yl)pivalamide], in that order: 0%, above 10000 nM, 150% and 100 nM.
`CCC(=O)Nc1cncc(-c2ccc3[nH]nc(-c4nc5c(-c6cccs6)cncc5[nH]4)c3n2)c1` [Compound 309, N-(5-(3-(7-(Thiophen-2-yl)-3H-imidazo[4,5-c]pyridin-2-yl)-1H-pyrazolo[4,3-b]pyridin-5-yl)pyridin-3-yl)propionamide]: in test [1], the inhibition at 10 µM is 2.4% and the EC50 is above 10000 nM. Besides, in test [2], the Emax amounted to 80% and the EC50 worked out at 30 nM.
For `CN1CCN(c2cncc3[nH]c(-c4n[nH]c5ccc(-c6cncc(N)c6)nc45)nc23)CC1` [Compound 227, 5-(3-(7-(4-Methylpiperazin-1-yl)-3H-imidazo[4,5-c]pyridin-2-yl)-1H-pyrazolo[4,3-b]pyridin-5-yl)pyridin-3-amine], in that order: 16.3%, above 10000 nM, 65% and 30 nM.
For `Cc1ncc(-c2ccc3[nH]nc(-c4nc5c(-c6cccc(F)c6)cncc5[nH]4)c3n2)n1C` [Compound 481, 5-(1,2-Dimethyl-1H-imidazol-5-yl)-3-(7-(3-fluorophenyl)-3H-imidazo[4,5-c]pyridin-2-yl)-1H-pyrazolo[4,3-b]pyridine], in that order: 46%, above 10000 nM, 132% and 30 nM.
For `CC(C)CC(=O)Nc1cncc(-c2ccc3[nH]nc(-c4nc5c(-c6cccc(F)c6)cncc5[nH]4)c3n2)c1` [Compound 2, N-(5-(3-(7-(3-Fluorophenyl)-3H-imidazo[4,5-c]pyridin-2-yl)-1H-pyrazolo[4,3-b]pyridin-5-yl)pyridin-3-yl)-3-methylbutanamide], in that order: 43%, above 10000 nM, 53% and 21 nM.
On to `CCCC(=O)Nc1cncc(-c2ccc3[nH]nc(-c4nc5c(-c6ccncc6)cncc5[nH]4)c3n2)c1` [Compound 129, N-(5-(3-(7-(Pyridin-4-yl)-3H-imidazo[4,5-c]pyridin-2-yl)-1H-pyrazolo[4,3-b]pyridin-5-yl)pyridin-3-yl)butyramide], for which, in test [1], the inhibition at 10 µM worked out at 0% and the EC50 is above 10000 nM. The Emax in test [2] is 31%.
Regarding `CC(C)C(=O)Nc1cncc(-c2ccc3[nH]nc(-c4nc5c(-c6cccnc6)cncc5[nH]4)c3n2)c1` [Compound 93, N-(5-(3-(7-(Pyridin-3-yl)-3H-imidazo[4,5-c]pyridin-2-yl)-1H-pyrazolo[4,3-b]pyridin-5-yl)pyridin-3-yl)isobutyramide], in test [1], the inhibition at 10 µM was 18.3% and the EC50 was above 10000 nM. Moreover, in test [2], the Emax turned out to be 336% and the EC50 worked out at 1670 nM.
Consider `Cc1ccc(-c2cncc3[nH]c(-c4n[nH]c5ccc(-c6cncc(NC(=O)C(C)C)c6)nc45)nc23)s1` [Compound 373, N-(5-(3-(7-(5-Methylthiophen-2-yl)-3H-imidazo[4,5-c]pyridin-2-yl)-1H-pyrazolo[4,3-b]pyridin-5-yl)pyridin-3-yl)isobutyramide], for which, in test [1], the inhibition at 10 µM is 16.1% and the EC50 is above 10000 nM. Besides, the Emax in test [2] was found to be 42%.
Consider `Fc1cccc(-c2cncc3[nH]c(-c4n[nH]c5ccc(-c6ccncc6)nc45)nc23)c1` [Compound 18, 3-(7-(3-Fluorophenyl)-3H-imidazo[4,5-c]pyridin-2-yl)-5-(pyridin-4-yl)-1H-pyrazolo[4,3-b]pyridine], for which, in test [1], the inhibition at 10 µM was 14% and the EC50 is above 10000 nM. Further, in test [2], the Emax stood at 51% and the EC50 came out at 7 nM.
For `COc1cccc(-c2cncc3[nH]c(-c4n[nH]c5ccc(-c6cccnc6)nc45)nc23)c1` [Compound 949, 3-(7-(3-Methoxylphenyl)-3H-imidazo[4,5-c]pyridin-2-yl)-5-(pyridin-3-yl)-1H-pyrazolo[4,3-b]pyridine], in that order: 18.2%, above 10000 nM, 59% and 30 nM.
